Test results: patent US20220184143A1, “COMPOSITIONS AND METHODS OF MODULATING CASOTRANSMITTER SIGNALING” (CASE WESTERN RESERVE UNIVERSITY, priority 2019, published 2022)

Tests used:
AGO2 [1] = biological target: T1, AGO2 (Homo sapiens, UniProt Q9UKV8); assay: AGO2 immunoblot following SNO-RAC in HEK293 cells; format: cell-based; parameters: endogenous in cells; host or cells: HEK293
Description: S-nitrosylated proteins were isolated by SNO-RAC as described. In brief, cells were lysed in HEN buffer additionally containing 1% NP-40, 50 mM NaCl and protease inhibitors. Free cysteines were blocked with S-Methyl methanethiosulfonate (MMTS). After acetone precipitation and multiple 70% acetone washes, proteins were re-suspended in HEN buffer containing 1% SDS. 50 μl thiopropyl Sepharose 6B resin (GE, Chicago, Ill.) and 50 mM sodium ascorbate were added, followed by rotation in the dark for 4 hr at room temperature. Following multiple washes, the bound proteins were eluted in 2×SDS-PAGE loading buffer containing 10% β-mercaptoethanol. Following separation on reducing pre-cast 4-20% SDS-PAGE gels (Bio-Rad Laboratories, Hercules, Calif.), individual SNO-proteins were detected by Western blotting using specific antibodies (anti-FLAG, anti-myc, anti-ALG-1, anti-AGO2, anti-GW182) or the gel was stained using the SilverQuest™ silver staining kit (ThermoFisher Scientific, Waltham, Mass.) or Imperial™ Protein Stain (ThermoFisher Scientific, Waltham, Mass.), per manufacturer instructions.
Transfected HEK293 or HeLa cells were cultured at 37° C. in 15 cm tissue culture-treated dishes. They were then treated with either 500 μM DETA-NOate (t1/2=20 hr) for 16 hours, 100 μM CysNO for 10 min, or 200 μM dipropylenetriamine (DPTA)-NONOate (Cayman Chemicals, Ann Arbor, Mich.) for 6 hours. […]

AGO2 [2] = biological target: T2, AGO2 (Homo sapiens, UniProt Q9UKV8, C691S); assay: let-7 luciferase reporter miRNA activity assay in HeLa cells; format: cell-based; conditions: C691S AGO2, Hmga2 3'UTR reporter
T2 construct: expressed in transfected cells; host or cells: HeLa
T2 sequence (Q9UKV8 whole entry C691S): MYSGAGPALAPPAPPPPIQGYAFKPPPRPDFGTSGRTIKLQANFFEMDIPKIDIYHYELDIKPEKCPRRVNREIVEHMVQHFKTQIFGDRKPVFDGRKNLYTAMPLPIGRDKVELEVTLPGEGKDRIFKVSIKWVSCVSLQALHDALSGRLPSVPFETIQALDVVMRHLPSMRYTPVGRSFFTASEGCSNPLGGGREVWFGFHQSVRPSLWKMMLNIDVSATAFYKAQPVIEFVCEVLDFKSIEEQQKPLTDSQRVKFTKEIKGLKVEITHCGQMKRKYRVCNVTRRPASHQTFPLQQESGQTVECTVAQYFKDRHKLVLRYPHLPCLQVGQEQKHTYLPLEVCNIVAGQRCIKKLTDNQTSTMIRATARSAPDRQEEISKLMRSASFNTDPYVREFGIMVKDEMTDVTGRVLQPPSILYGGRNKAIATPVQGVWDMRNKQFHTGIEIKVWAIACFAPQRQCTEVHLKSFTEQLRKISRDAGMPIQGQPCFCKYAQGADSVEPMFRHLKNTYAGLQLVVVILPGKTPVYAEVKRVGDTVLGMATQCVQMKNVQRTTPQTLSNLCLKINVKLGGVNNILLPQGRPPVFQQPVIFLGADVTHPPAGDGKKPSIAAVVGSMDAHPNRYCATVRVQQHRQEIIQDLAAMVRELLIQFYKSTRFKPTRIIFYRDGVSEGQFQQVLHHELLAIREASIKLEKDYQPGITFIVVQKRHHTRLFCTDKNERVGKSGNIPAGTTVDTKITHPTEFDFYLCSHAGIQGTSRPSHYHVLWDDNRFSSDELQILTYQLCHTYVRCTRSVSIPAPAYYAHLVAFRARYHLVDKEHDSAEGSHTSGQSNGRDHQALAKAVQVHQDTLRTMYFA
Description: (§1) 0.5×10^5 cells/well Hela cells were plated in wells of 24 well dishes. They were transiently transfected the next day with 2 μg of either WT-AGO2 or C691S-AGO2, plus 100 ng of either Hmga2 3′UTR-WT luciferase (Luc-wt) or Hmga2 3′UTR-mutant7 luciferase (Luc-m7) control. 100 ng pMax-GFP was also co-transfected to normalize for transfection efficiency. Transfections were carried out using Lipofectamine® 2000 transfection reagent (ThermoFisher Scientific, Waltham, Mass.). Six hours after transfection, the NO donor DETA-NONOate (Cayman Chemicals, Ann Arbor, Mich.) was added at 500 μM. The cells were harvested 24 hours post-transfection, using 1× Passive Lysis Buffer (Promega, Madison, Wis.). Renilla luciferase activity was measuredusing the Renilla Luciferase Assay System (Promega, Madison, Wis.) and a Veritas™ microplate luminometer (Turner BioSystems, Sunnyvale, Calif.) and normalized to GFP readings measured using a BMG FluoStar Galaxy microplate reader. Hmga2 3′UTR WT luciferase (Luc-wt) and Hmga2 3′UTR m7 luciferase (Luc-m7) were gifts from David Bartel (Addgene plasmid #14785 and #14788, respectively)).

AGO2 [3] = biological target: T1, AGO2; assay: as above; format: cell-based; parameters: expressed in transfected cells; host or cells: HeLa; conditions: WT AGO2, Hmga2 3'UTR reporter
Description: as §1

AGO2 and GW182 = biological target: T3, AGO2 and GW182 (Homo sapiens, UniProt Q9UKV8); assay: Co-immunoprecipitation of AGO2 and GW182 in HEK293 cells; format: cell-based
T3 construct: host or cells: HEK293
T3 sequence (Q9UKV8 whole entry): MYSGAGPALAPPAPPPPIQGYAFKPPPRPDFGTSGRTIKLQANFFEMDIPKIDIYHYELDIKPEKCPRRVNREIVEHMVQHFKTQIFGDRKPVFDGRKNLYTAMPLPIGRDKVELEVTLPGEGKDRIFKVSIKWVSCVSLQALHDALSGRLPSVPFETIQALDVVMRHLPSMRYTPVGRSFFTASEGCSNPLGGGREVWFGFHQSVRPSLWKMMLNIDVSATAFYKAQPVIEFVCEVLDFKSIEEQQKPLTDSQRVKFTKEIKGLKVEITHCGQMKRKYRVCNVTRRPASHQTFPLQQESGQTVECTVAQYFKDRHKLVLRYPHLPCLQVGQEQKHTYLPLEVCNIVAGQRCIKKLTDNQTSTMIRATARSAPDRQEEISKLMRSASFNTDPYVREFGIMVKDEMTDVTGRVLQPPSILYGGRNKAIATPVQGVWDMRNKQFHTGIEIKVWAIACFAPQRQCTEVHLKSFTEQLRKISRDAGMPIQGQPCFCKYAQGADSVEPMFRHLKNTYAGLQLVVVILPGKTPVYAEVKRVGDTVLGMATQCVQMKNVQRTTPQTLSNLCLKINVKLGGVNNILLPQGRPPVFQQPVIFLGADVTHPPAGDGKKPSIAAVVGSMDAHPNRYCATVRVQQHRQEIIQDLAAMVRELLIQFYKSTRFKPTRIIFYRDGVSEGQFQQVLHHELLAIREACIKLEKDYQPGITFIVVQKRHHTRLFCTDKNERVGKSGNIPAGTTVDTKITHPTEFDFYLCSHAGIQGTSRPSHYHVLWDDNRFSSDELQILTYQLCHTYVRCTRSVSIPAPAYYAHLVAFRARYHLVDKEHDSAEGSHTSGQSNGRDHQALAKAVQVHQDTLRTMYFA
Description: Transfected HEK293 or HeLa cells were cultured at 37° C. in 15 cm tissue culture-treated dishes. They were then treated with either 500 μM DETA-NOate (t1/2=20 hr) for 16 hours, 100 μM CysNO for 10 min, or 200 μM dipropylenetriamine (DPTA)-NONOate (Cayman Chemicals, Ann Arbor, Mich.) for 6 hours. Cells were washed once with DPBS without calcium chloride and magnesium chloride from Gibco® (Life Technologies, Carlsbad, Calif.) and incubated on ice for 10 minutes in IP lysis/wash buffer (ThermoFisher Scientific, Waltham, Mass.) with added EDTA-free protease inhibitor tablet (Roche, Basel, Switzerland). This was followed by centrifugation at 14,000 g for 10 minutes to collect the supernatant. The lysates were then used for immunoprecipitation experiments.
For HEK293 cells, all steps were performed either on ice or in the cold room at 4° C. Immunoprecipitations (IP) were performed with 3 mg of total lysate that was pre-cleared using a Pierce™ control agarose resin (ThermoFisher Scientific, Waltham, Mass.), after which 10 μg of IP antibody was added, and samples were incubated overnight at 4° C. with rotation. The next day, 30 μl of protein A/G Sepharose (ThermoFisher Scientific, Waltham, Mass.) was added and the samples were incubated for 2 hours at 4° C. […] The eluates were neutralized by adding 3 μl of 1M Tris-HCl, pH 8.0 and analyzed by western blotting. […]

[4] = cited from earlier work

T1 sequence (Q9UKV8 whole entry): as above

SMILES | S-nitrosylation of WT AGO2 (AGO2 [1]; HEK293 cells transfected with WT AGO2, 100 μM) | mutant C691S AGO2 activity (AGO2 [2]) | S-nitrosylation of AGO2 by endogenous eNOS (AGO2 [1]; HEK293 cells, 500 μM) | WT AGO2 repression of luciferase target (AGO2 [3]) | association of WT AGO2 with GW182 (AGO2 and GW182; co-immunoprecipitation, transfected HEK293 cells) | interaction between endogenous AGO2 and GW182 (AGO2 and GW182; cultured mammalian cells) | t1/2 [4] [h]
N[C@@H](CSN=O)C(=O)O [CysNO, S-nitrosocysteine] | strongly S-nitrosylated | – | – | – | – | – | –
NCCN(CCN)/[N+]([O-])=N/O [DETA-NO, DETA-NONOate] | – | little effect | enhanced | repressed its target poorly | strongly inhibited | inhibited | 20
